{
  "source": "patent US20210214683A1",
  "about": "“METHODS FOR ISOLATING TUMOR-SPECIFIC IMMUNE CELLS FROM A SUBJECT FOR ADOPTIVE CELL THERAPY AND CANCER VACCINES” (CRITITECH, INC., priority 2018, published 2021)",
  "key": {"[1]": {"tested_on": "human renal cell adenocarcinoma (786-O cell line)", "test": "Rat 786-O xenograft: H&E and immunohistochemical evaluation (viable carcinoma size, necrosis, CD11b/CD68 infiltrate, TLS)", "format": "in vivo, Sprague-Dawley Rag2; Il2rg null (SRG) rat", "from_the_text": "Tissue Collection: Primary Tumor (Inoculation site)—A final tumor measurement was taken prior to excision. Tumors were weighed after excision. Approximately ½ of each tumor (based on visual assessment) was flash frozen in 2-methylbutane on dry ice, the tumor piece was weighed when possible before it is flash frozen. The remaining was fixed in 10% neutral buffered formalin. Tumors were also collected from animals not reaching enrollment volume. Secondary Tumors—Any organ with visible tumors were collected and fixed in 10% neutral buffered formalin. Formalin fixed tissues were stored at room temperature. Frozen tissues were stored at −80° C. All tissue was stored for up to 3 months. Pictures of all tumors; primary and secondary if present, were taken.\nMicroscopic Examination: Tissues fixed with 10% NBF were embedded in paraffin. Each tumor was cut into 2-3 pieces and embedded and sectioned together."}, "[2]": {"tested_on": "UM-UC-3 bladder cancer cell line", "test": "UM-UC-3 mouse xenograft study: immunohistochemistry (F4/80, CD68 macrophage infiltrate, CD45R)", "format": "in vivo, Hsd:Athymic Nude-Foxn1nu nude mice", "conditions": "IV Docetaxel 3 cycles"}, "Renca tumor cells [3]": {"tested_on": "Renca tumor cells", "test": "Renca syngeneic xenograft study: primary tumor volume (groups 1-7)", "format": "in vivo, female BALB/c mice", "conditions": "IV docetaxel Day 1 (10 mg/kg) and Day 11 (5 mg/kg)", "method": "(§1) The schedule in Table 39 was followed.\nAll treatments were initiated on the same day.\n(§2) Cell Injection Volume: 0.1 mL/mouse. Age at Start Date: 8 to 12 weeks. […] Body Weight: 5/2 then tiwk to end. Caliper Measurement: tiwk to end. Double caliper measurements were performed for Groups 8-10. […] The group was not euthanized and recovery was allowed.\n(§3) Endpoints: Groups 1-7: Endpoint TGI. Animals were monitored as a group."}, "[4]": {"test": "UM-UC-3 mouse xenograft study: body weight and peripheral neuropathy", "format": "in vivo, Hsd:Athymic Nude-Foxn1nu nude mice", "conditions": "Docetaxel IV 3 cycles", "method": "(§4) Tumor volume was determined with calipers. […] Animals were weighed 2×/week."}, "[5]": {"tested_on": "UM-UC-3 bladder cancer cell line", "test": "Human bladder cancer (UM-UC-3) mouse xenograft study: tumor volume", "format": "in vivo, Hsd:Athymic Nude-Foxn1nu nude mice", "conditions": "Docetaxel IV 30 mg/kg, 3 cycles", "method": "as §4\nAt day 18 after tumor implant, when average tumor size was between 50-325 mm^3, animals were sorted into five groups with equal average tumor sizes and were treated as shown in Table 25 below.\nThe second treatments (2nd cycle) occurred 7 days following first treatment (1st cycle) and third treatments (3rd cycle) occurred 14 days following the first treatment. The docetaxel solution IV was administered via the tail vein.\nVehicle (Control): Diluted 1 ml of the 1% Polysorbate 80/8% Ethanol in normal saline (0.9% Sodium Chloride for Injection) reconstitution solution with 1.5 mL of normal saline (0.9% Sodium Chloride for Injection, USP). […] Vigorously hand shook the vial with inversions for 1 minute. […] Allowed the suspension to sit undisturbed for at least 5 minutes to reduce entrapped air and foam. […] Vortexed to mix."}, "[6]": {"tested_on": "immune cells in the blood", "test": "Renca syngeneic xenograft study: flow cytometry of blood (CD45+, CD4+, CD8+, Treg, MDSC, M1, M2)", "format": "in vivo, female BALB/c mice", "conditions": "IV Docetaxel, individual animals", "method": "Blood Collection: Collected full volume blood by terminal cardiac puncture under isoflurane anesthesia. Processed blood for: Whole Blood: anti-coagulant—K2EDTA, preservation—Cooled 4° C., shipping condition—4° C. (wet ice). Retained at CRL-NC for flow cytometry. See Flow panel in Table 40 below.\n(§5) Peripheral blood and tumor tissue were collected for analysis via flow cytometry. Cell types analyzed included T-Cells: CD4+, CD8+ (Tumor Suppression); Treg (Tumor Promotion); M1 Macrophages (Tumor Suppression); M2 Macrophages (Tumor Promotion); and M2 Macrophages (Tumor Promotion)."}, "[7]": {"tested_on": "immune cells in tumor tissue", "test": "Renca syngeneic xenograft study: flow cytometry of tumor tissue", "format": "in vivo, female BALB/c mice", "conditions": "IV docetaxel, individual animal", "method": "Organ Collection: Tumor (divide into 2 parts). […] Sent to laboratory for IHC staining. Part 2: preservation—processed to single cell suspension, shipping condition—4° C. (wet ice). Retained at CRL-NC for flow cytometry. See Flow panel in Table 40 below. Tumor preservation for early euthanasia in Groups 2-10: Excised tumor and surrounding area from the mammary fat pad area (cranial) to just past tumor (caudal). The region included the inguinal lymph node. Sectioned this sample every 4 mm from the cranial to caudal end and enclosed in separate cassettes labeled in order.\nas §5"}, "Renca tumor cells [8]": {"tested_on": "Renca tumor cells", "test": "Renca syngeneic xenograft study: untreated secondary tumor growth (groups 8-10)", "format": "in vivo, female BALB/c mice", "conditions": "IV docetaxel; second Renca injection day 15", "method": "as §1, §2, §3"}, "[9]": {"tested_on": "UM-UC-3 bladder cancer cell line", "test": "UM-UC-3 mouse xenograft study: H&E histopathology (viable carcinoma size on slide, necrosis, TLS)", "format": "in vivo, Hsd:Athymic Nude-Foxn1nu nude mice"}, "[10]": {"conditions": "IV Docetaxel 3 cycles, 2 animals"}},
  "note": "Where “and” joins values, the source holds several entries; their conditions need not be identical. Equal entries are not always repeated. Marks after values point to notes of the source that are not given here.",
  "data": [
    {"compound": "CC(=O)O[C@@]12CO[C@@H]1C[C@H](O)[C@@]1(C)C(=O)[C@H](O)C3=C(C)[C@@H](OC(=O)[C@H](O)[C@@H](NC(=O)OC(C)(C)C)c4ccccc4)C[C@@](O)([C@@H](OC(=O)c4ccccc4)[C@H]21)C3(C)C", "note": "[Doce]", "values": [
      {"measurement": "Number of animals with <5% of tissue showing necrosis", "setting": "[1]; IV Doce, 2 animals", "value": 2},
      {"measurement": "Number of animals with Mild lymphohistiocytic infiltrate density", "setting": "[1]; IV Doce, 2 animals, H/E and CD11b staining, semi quantitative", "value": 2}
    ]},
    {"compound": "CC(=O)O[C@@]12CO[C@@H]1C[C@H](O)[C@@]1(C)C(=O)[C@H](O)C3=C(C)[C@@H](OC(=O)[C@H](O)[C@@H](NC(=O)OC(C)(C)C)c4ccccc4)C[C@@](O)([C@@H](OC(=O)c4ccccc4)[C@H]21)C3(C)C", "note": "[Docetaxel, docetaxel]", "values": [
      {"measurement": "histology compared with the vehicle control (FIG. 93)", "setting": "[1]; Docetaxel (IV) 3 cycles, female rat", "value": "no difference"},
      {"measurement": "Number of animals with residual viable carcinoma >10 mm", "setting": "[1]; IV docetaxel, 2 animals, maximum dimension on slide", "value": 2},
      {"measurement": "residual viable carcinoma nodules, size on the slide", "setting": "[1]; both IV docetaxel animals (3 cycles)", "value": "greater than 10 mm"},
      {"measurement": "F4/80 immunohistochemistry observation (FIG. 87)", "setting": "[2]", "value": "Very little tumor cell destruction and few scattered mononuclear immune cells among vast number of viable tumor cells"},
      {"measurement": "Macrophage infiltrate density: Mild (animals)", "setting": "[2]; 2 animals, H&E and CD68", "value": 2},
      {"measurement": "tumor volume compared to vehicle", "setting": "Renca tumor cells [3]", "value": "No difference in tumor volume"},
      {"measurement": "initial animal weight loss compared with nDoce IT 1, 2, 3 cycles", "setting": "[4]", "value": "generally greater"},
      {"measurement": "peripheral neuropathy compared with nDoce IT 3 cycles", "setting": "[4]", "value": "greater signs of peripheral neuropathy"},
      {"measurement": "efficacy in relation to initial tumor size", "setting": "[5]", "value": "somewhat effective at treating small tumors, but not very effective in treating large tumors"},
      {"measurement": "tumor volumes over the study (61 days), after an initial decrease", "setting": "[5]", "value": "subsequently increased"},
      {"measurement": "CD45 (% of Live)", "setting": "[6]", "value": "97 % of Live"},
      {"measurement": "CD45 Count", "setting": "[6]", "value": 1200000},
      {"measurement": "MDSC Count", "setting": "[6]", "value": 1000000},
      {"measurement": "Treg Count", "setting": "[6]", "value": "1300 and 870"},
      {"measurement": "CD8 (% of CD45)", "setting": "[7]", "value": "0.75% and 0.5% and 0.28% and 0.31% (2×) and 0.061% and 0.32% and 0.45% and 0.81% and 0.33%"},
      {"measurement": "CD8 Count", "setting": "[7]", "value": "33 and 40 and 26 and 9 and 36 and 270"},
      {"measurement": "CD45 (% of Live)", "setting": "[7]", "value": 73, "unit": "%"},
      {"measurement": "Conv CD4 (% of CD45)", "setting": "[7]", "value": "0.44% and 0.16% and 0.58% and 0.62% and 0.59%"},
      {"measurement": "Conv CD4 Count", "setting": "[7]", "value": "54 and 93 and 140 and 23 and 50 and 670"},
      {"measurement": "M1 Mac Count", "setting": "[7]", "value": "460 and 700"},
      {"measurement": "M2 Mac (% of CD45)", "setting": "[7]", "value": 28, "unit": "%"},
      {"measurement": "MBSC (% of CD45)", "setting": "[7]", "value": "25.1% and 32.8% and 42.5% and 44% and 83.3% and 20% and 70.4% and 37.3% and 10.4%"},
      {"measurement": "Treg (% of CD45)", "setting": "[7]", "value": "0.55% and 0.32% and 0.62% and 0.16% and 0.54% and 0.21% and 0.42% and 0.6%"},
      {"measurement": "Treg Count", "setting": "[7]", "value": "69 and 44 and 30 and 23 and 17 and 520"},
      {"measurement": "growth rate of the secondary Renca tumors", "setting": "Renca tumor cells [8]", "value": "did not reduce the growth rate of the secondary Renca tumors"},
      {"measurement": "General histological observations (H&E)", "setting": "[9]; Docetaxel Solution IV 3 cycles", "value": "many viable appearing tumor masses with some macrophage and occasional lymphocytic response along with some tumor necrosis"},
      {"measurement": "Maximum size of viable invasive carcinoma on the slide >10 mm (animals)", "setting": "[9]; [10]", "value": "2*"},
      {"measurement": "Number of animals with 11-50% of tumor showing necrosis", "setting": "[9]; [10]", "value": 1},
      {"measurement": "Number of animals with 50-90% of tumor showing necrosis", "setting": "[9]; [10]", "value": 1},
      {"measurement": "Maximum tumor size on slide (mm)", "setting": "[9]; IV Docetaxel 3 cycles, individual animals B1, B3", "value": "15 mm and 11 mm"},
      {"measurement": "maximum dimension of tumor mass on the slide, individual cases", "setting": "[9]; Intravenous Docetaxel 3 cycles, 2 cases", "value": "11 mm and 15 mm"},
      {"measurement": "geographic tumor cell necrosis, share of the tumor area, individual cases", "setting": "[9]; Intravenous Docetaxel 3 cycles, cases B1, B3", "value": "11-50% and 50-90%"}
    ]}
  ]
}
